Key:
Cyperus esculentus [1] = test: Herbicidal activity against Cyperus esculentus (yellow nutsedge) in sunn hemp assessed as weed control at 0.07 kg/ha post-emergence treatment measured after 2 weeks; type: functional
Eragrostis cilianensis [2] = test: Herbicidal activity against Eragrostis cilianensis (stinkgrass) in sunn hemp assessed as weed control at 0.07 kg/ha post-emergence treatment measured after 2 weeks; type: functional
Digitaria sanguinalis [3] = test: Herbicidal activity against Digitaria sanguinalis (hairy crabgrass) in sunn hemp assessed as weed control at 0.07 kg/ha post-emergence treatment measured after 2 weeks; type: functional
Crotalaria juncea [4] = test: Herbicidal tolerance in Crotalaria juncea (sunn hump) performance assessed as injury at 0.07 kg/ha post-emergence treatment measured after 2 weeks; type: ADME, organism-based; conditions: in vivo, other, 336 h
Crotalaria juncea [5] = test: Herbicidal tolerance in Crotalaria juncea (sunn hump) performance assessed as plant hight at 0.07 kg/ha post-emergence treatment measured after 2 weeks; type: ADME, organism-based; conditions: in vivo, other, 336 h
Crotalaria juncea [6] = test: Herbicidal tolerance in Crotalaria juncea (sunn hump) performance assessed as stand count at 0.07 kg/ha post-emergence treatment measured after 2 weeks; type: ADME, organism-based; conditions: in vivo, other, 336 h
Cyperus esculentus [7] = test: Herbicidal activity against Cyperus esculentus (yellow nutsedge) in sunn hemp assessed as weed control at 1.12 kg/ha post-emergence treatment measured after 2 weeks; type: functional
Eragrostis cilianensis [8] = test: Herbicidal activity against Eragrostis cilianensis (stinkgrass ) in sunn hemp assessed as weed control at 1.12 kg/ha post-emergence treatment measured after 2 weeks; type: functional
Digitaria sanguinalis [9] = test: Herbicidal activity against Digitaria sanguinalis (hairy crabgrass) in sunn hemp assessed as weed control at 1.12 kg/ha post-emergence treatment measured after 2 weeks; type: functional
Crotalaria juncea [10] = test: Herbicidal tolerance in Crotalaria juncea (sunn hump) performance assessed as injury at 1.12 kg/ha post-emergence treatment measured after 2 weeks; type: ADME, organism-based; conditions: in vivo, other, 336 h
Crotalaria juncea [11] = test: Herbicidal tolerance in Crotalaria juncea (sunn hump) performance assessed as plant hight at 1.12 kg/ha post-emergence treatment measured after 2 weeks; type: ADME, organism-based; conditions: in vivo, other, 336 h
Crotalaria juncea [12] = test: Herbicidal tolerance in Crotalaria juncea (sunn hump) performance assessed as stand count at 1.12 kg/ha post-emergence treatment measured after 2 weeks; type: ADME, organism-based; conditions: in vivo, other, 336 h

Structure (SMILES)	Activity (Cyperus esculentus [1]) [%]	Activity (Eragrostis cilianensis [2]) [%]	Activity (Digitaria sanguinalis [3]) [%]	Activity (Crotalaria juncea [4]) [%]	Activity (Crotalaria juncea [5]) [cm]	Activity (Crotalaria juncea [6])	Activity (Cyperus esculentus [7]) [%]	Activity (Eragrostis cilianensis [8]) [%]	Activity (Digitaria sanguinalis [9]) [%]	Activity (Crotalaria juncea [10]) [%]	Activity (Crotalaria juncea [11]) [cm]	Activity (Crotalaria juncea [12])
Cc1cnc(C2=NC(=O)C(C)(C(C)C)N2)c(C(=O)O)c1 (configuration not stated) [IMAZAPIC]	91	93	76	9	110	8.18 /m2	–	–	–	–	–	–
CCC(CC)Nc1c([N+](=O)[O-])cc(C)c(C)c1[N+](=O)[O-] [PENDIMETHALIN]	–	–	–	–	–	–	63	94	78	7	108	8.18 /m2
